From the Kinase Knowledgebase extract (Sharma et al. 2016)

Assays:
EGFR (human) = EGFR (human) (UniProt P00533)
[1] = target: EGFR (Human), P00533 [T790M/L858R]; conditions: baf3
[2] = target: EGFR (Human), P00533 [Assessment of EGFR-Del T790M Dependent Cell Proliferation in BaF3 Cells]
[3] = target: EGFR (Human), P00533 [T790M/L858R]
[4] = target: EGFR (human), P00533 [L858R]
Chain of EGFR (human), P00533 [L858R] (P00533 whole entry L858R, looked up): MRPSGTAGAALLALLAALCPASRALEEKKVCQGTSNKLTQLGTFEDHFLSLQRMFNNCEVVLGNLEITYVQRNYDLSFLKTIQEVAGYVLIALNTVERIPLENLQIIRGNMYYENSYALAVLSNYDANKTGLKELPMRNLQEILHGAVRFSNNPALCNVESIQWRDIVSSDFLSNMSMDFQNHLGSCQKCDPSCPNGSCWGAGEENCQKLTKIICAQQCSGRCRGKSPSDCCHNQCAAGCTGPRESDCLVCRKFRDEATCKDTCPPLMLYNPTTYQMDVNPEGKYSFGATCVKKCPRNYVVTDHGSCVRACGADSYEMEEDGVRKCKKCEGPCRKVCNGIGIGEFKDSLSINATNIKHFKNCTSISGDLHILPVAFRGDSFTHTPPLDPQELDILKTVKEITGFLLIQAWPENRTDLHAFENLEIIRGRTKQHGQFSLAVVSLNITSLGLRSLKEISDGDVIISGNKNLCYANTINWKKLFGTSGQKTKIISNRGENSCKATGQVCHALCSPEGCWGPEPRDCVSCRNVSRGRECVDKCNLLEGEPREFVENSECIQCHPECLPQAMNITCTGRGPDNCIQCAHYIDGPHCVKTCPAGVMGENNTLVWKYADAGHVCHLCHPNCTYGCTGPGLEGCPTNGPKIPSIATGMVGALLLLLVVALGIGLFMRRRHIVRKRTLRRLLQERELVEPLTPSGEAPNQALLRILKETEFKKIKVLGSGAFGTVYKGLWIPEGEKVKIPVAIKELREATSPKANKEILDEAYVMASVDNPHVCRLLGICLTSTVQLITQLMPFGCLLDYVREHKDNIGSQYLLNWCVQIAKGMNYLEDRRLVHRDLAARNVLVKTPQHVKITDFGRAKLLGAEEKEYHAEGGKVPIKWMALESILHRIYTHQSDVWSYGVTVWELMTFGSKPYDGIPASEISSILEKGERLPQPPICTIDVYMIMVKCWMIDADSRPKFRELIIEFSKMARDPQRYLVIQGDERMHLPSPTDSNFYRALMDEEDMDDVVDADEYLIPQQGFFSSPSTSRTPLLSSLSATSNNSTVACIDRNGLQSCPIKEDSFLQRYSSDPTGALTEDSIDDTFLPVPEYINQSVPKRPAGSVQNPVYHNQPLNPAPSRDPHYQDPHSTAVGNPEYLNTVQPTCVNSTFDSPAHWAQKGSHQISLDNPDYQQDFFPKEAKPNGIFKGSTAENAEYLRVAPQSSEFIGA

Chain of EGFR (Human), P00533 [T790M/L858R] (P00533 whole entry T790M/L858R, looked up): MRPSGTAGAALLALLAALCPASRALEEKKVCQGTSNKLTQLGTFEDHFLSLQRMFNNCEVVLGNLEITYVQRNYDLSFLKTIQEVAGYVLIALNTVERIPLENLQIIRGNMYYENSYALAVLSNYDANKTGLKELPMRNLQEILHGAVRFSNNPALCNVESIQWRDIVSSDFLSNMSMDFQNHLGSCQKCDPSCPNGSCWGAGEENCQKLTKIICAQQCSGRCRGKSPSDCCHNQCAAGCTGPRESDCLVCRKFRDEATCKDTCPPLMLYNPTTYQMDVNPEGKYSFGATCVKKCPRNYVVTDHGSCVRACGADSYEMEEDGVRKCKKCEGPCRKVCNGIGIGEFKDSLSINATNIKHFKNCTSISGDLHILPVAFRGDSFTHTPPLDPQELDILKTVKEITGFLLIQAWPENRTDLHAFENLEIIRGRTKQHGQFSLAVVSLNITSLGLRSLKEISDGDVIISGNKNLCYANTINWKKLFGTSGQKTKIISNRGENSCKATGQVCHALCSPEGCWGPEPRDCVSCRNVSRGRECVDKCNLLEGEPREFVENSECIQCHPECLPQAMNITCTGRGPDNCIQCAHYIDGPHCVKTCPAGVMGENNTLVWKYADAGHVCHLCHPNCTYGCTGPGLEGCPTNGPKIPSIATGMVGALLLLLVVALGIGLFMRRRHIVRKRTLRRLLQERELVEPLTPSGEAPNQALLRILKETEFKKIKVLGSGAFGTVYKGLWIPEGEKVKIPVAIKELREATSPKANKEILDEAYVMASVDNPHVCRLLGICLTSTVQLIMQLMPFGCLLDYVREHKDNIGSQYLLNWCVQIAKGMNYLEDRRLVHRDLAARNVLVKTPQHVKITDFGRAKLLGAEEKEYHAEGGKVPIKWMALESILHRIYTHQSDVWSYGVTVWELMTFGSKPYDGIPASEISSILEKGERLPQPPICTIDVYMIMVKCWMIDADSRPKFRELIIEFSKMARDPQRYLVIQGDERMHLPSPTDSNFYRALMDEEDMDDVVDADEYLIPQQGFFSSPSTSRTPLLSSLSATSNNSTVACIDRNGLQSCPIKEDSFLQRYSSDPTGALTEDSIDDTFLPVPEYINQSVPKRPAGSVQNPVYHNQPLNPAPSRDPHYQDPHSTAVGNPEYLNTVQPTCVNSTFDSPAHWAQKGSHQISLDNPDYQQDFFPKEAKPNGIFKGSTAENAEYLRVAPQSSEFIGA
Chain of EGFR (human) (P00533 whole entry, looked up): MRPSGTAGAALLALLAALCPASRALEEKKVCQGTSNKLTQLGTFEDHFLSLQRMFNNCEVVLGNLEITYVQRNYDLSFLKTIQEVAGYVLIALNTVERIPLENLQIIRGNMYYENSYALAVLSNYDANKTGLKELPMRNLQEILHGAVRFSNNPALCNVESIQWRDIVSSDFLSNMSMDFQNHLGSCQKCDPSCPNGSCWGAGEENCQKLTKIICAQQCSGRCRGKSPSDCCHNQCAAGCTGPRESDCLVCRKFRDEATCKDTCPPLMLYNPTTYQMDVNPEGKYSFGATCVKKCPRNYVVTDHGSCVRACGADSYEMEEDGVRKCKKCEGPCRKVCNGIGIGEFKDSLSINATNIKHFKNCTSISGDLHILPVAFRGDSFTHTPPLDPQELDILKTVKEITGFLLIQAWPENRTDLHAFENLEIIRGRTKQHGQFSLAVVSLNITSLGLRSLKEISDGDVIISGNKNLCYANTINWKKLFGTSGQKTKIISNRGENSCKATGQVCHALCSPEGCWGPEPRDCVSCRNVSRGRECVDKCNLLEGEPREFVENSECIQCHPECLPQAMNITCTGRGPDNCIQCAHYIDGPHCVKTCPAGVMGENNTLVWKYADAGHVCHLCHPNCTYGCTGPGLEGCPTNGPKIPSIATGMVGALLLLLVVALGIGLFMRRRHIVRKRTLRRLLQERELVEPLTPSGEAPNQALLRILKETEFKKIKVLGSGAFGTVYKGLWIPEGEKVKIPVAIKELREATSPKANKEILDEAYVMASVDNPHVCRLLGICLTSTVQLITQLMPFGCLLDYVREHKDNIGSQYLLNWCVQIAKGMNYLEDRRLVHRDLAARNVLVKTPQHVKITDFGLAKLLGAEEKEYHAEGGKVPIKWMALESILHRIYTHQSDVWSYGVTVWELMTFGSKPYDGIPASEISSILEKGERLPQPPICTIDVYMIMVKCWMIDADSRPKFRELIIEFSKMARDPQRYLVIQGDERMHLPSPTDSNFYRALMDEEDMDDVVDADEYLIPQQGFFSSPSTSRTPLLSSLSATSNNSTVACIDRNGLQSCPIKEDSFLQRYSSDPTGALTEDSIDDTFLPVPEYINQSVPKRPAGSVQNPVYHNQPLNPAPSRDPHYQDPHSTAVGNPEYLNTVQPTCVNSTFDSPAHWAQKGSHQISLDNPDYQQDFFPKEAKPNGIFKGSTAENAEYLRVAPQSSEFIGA
Chain of EGFR (Human), P00533 [Assessment of EGFR-Del T790M Dependent Cell Proliferation in BaF3 Cells] (P00533 whole entry, looked up, stated change not applied): as the sequence (P00533 whole entry, looked up) above

SMILES | IC50 (EGFR (human)) [µM] | IC50 [1] [µM] | IC50 [2] [µM] | IC50 [3] [µM] | IC50 [4] [µM]
C=CC(=O)Nc1cc(Nc2ncc(Cl)c(Nc3ccccc3P(C)(C)=O)n2)c(OC)cc1CN1CCN(C)CC1 | < 0.05 | 0.05 to 0.1 | < 0.05 | < 0.05 | < 0.05
COc1cc(F)c(NC(=O)C#CC(C)(C)N2CCCC2)cc1Nc1ncc(Cl)c(Nc2ccccc2P(C)(C)=O)n1 | < 0.05 | < 0.05 | < 0.05 | < 0.05 | < 0.05
C=CC(=O)Nc1cc(Nc2ncc(Cl)c(Nc3ccccc3P(C)(C)=O)n2)c(OC)cc1N1CCC(N2CCCCC2)CC1 | < 0.05 | < 0.05 | < 0.05 | < 0.05 | < 0.05
C=CC(=O)Nc1cc(Nc2ncc(Cl)c(Nc3ccccc3P(C)(C)=O)n2)c(Cl)cc1C#CCN(C)C | < 0.05 | < 0.05 | < 0.05 | < 0.05 | < 0.05
C=CC(=O)Nc1cc(Nc2ncc(Cl)c(Nc3ccccc3P(C)(C)=O)n2)c(OC)cc1OCCN1CCOCC1 | < 0.05 | 0.101 to 0.25 | 0.05 to 0.1 | < 0.05 | < 0.05
COc1cc(F)c(NC(=O)C#CCN2CCCC2)cc1Nc1ncc(Cl)c(Nc2ccccc2P(C)(C)=O)n1 | < 0.05 | < 0.05 | < 0.05 | < 0.05 | < 0.05
C=CC(=O)Nc1cc(Nc2ncc(Cl)c(Nc3ccccc3P(C)(C)=O)n2)c(OC)cc1N1CCC(N(C)C)CC1 | < 0.05 | 0.101 to 0.25 | < 0.05 | < 0.05 | < 0.05
C=CC(=O)Nc1cc(Nc2ncc(Cl)c(Nc3ccccc3P(C)(C)=O)n2)c(OC)cc1C#CC(C)(C)N(CC)CC | < 0.05 | < 0.05 | < 0.05 | < 0.05 | < 0.05
COc1cc(F)c(NC(=O)C#CCN(C)C)cc1Nc1ncc(Cl)c(Nc2ccccc2P(C)(C)=O)n1 | < 0.05 | < 0.05 | < 0.05 | < 0.05 | < 0.05
CCOC(=O)/C=C/C(=O)Nc1ccc(OC)c(Nc2ncc(Cl)c(Nc3ccccc3P(C)(C)=O)n2)c1 | < 0.05 | < 0.05 | < 0.05 | < 0.05 | < 0.05
C=CC(=O)Nc1cc(Nc2ncc(Cl)c(Nc3ccccc3P(C)(C)=O)n2)c(OC)cc1C#CCN(C(C)C)C(C)C | < 0.05 | < 0.05 | < 0.05 | < 0.05 | < 0.05
C=CC(=O)Nc1cc(Nc2ncc(Cl)c(Nc3ccccc3P(C)(C)=O)n2)c(OC)cc1C#CCCN(C)C | < 0.05 | < 0.05 | < 0.05 | < 0.05 | < 0.05
C=C(CN1CCCCC1)C(=O)Nc1ccc(OC)c(Nc2ncc(Cl)c(Nc3ccccc3P(C)(C)=O)n2)c1 | < 0.05 | < 0.05 | < 0.05 | < 0.05 | < 0.05
C=CC(=O)Nc1cc(Nc2ncc(Cl)c(Nc3ccccc3P(C)(C)=O)n2)c(OC)cc1C#CCNC | < 0.05 | < 0.05 | < 0.05 | < 0.05 | < 0.05
C=CC(=O)Nc1cc(Nc2ncc(Cl)c(Nc3ccccc3P(C)(C)=O)n2)c(OC)cc1O[C@@H](COC)CN(C)C | < 0.05 | < 0.05 | < 0.05 | < 0.05 | < 0.05
C=C(CN1CCCC1)C(=O)Nc1ccc(OC)c(Nc2ncc(Cl)c(Nc3ccccc3P(C)(C)=O)n2)c1 | < 0.05 | < 0.05 | < 0.05 | < 0.05 | < 0.05
C=CC(=O)Nc1cc(Nc2ncc(Cl)c(Nc3ccccc3P(C)(C)=O)n2)c(OC)cc1OCCN1CCCC1 | < 0.05 | < 0.05 | < 0.05 | < 0.05 | < 0.05
COc1cc(N2CCOCC2)c(NC(=O)C#CCCN(C)C)cc1Nc1ncc(Cl)c(Nc2ccccc2P(C)(C)=O)n1 | < 0.05 | < 0.05 | < 0.05 | < 0.05 | < 0.05
COCCC#CC(=O)Nc1cc(Nc2ncc(Cl)c(Nc3ccccc3P(C)(C)=O)n2)c(OC)cc1N1CCOCC1 | < 0.05 | < 0.05 | < 0.05 | < 0.05 | < 0.05
C=CC(=O)Nc1cc(Nc2ncc(Cl)c(Nc3ccccc3P(C)(C)=O)n2)c(OC)cc1N1CCC(N2CCOCC2)C1 (stereo not given) | < 0.05 | < 0.05 | < 0.05 | < 0.05 | < 0.05
C=CC(=O)Nc1cc(Nc2ncc(Cl)c(Nc3ccccc3P(C)(C)=O)n2)c(OC)cc1C#CCN1CCCCCC1 | < 0.05 | < 0.05 | < 0.05 | < 0.05 | < 0.05
C=CC(=O)Nc1cc(Nc2ncc(Cl)c(Nc3ccccc3P(C)(C)=O)n2)c(OC)cc1C#CCN(C)C(C)C | < 0.05 | < 0.05 | < 0.05 | < 0.05 | < 0.05

SMILES | IC50 (EGFR (human)) [µM] | IC50 [1] [µM] | IC50 [2] [µM] | IC50 [3] [µM] | IC50 [4] [µM]
C=CC(=O)Nc1cc(Nc2ncc(Cl)c(Nc3ccccc3P(C)(C)=O)n2)c(OC)cc1N1CCC(N2CCC2)C1 (stereo not given) | < 0.05 | < 0.05 | < 0.05 | < 0.05 | < 0.05
C=CC(=O)Nc1cc(Nc2ncc(Cl)c(Nc3ccccc3P(C)(C)=O)n2)c(OC)cc1OC(COCC)CN(C)C (stereo not given) | < 0.05 | < 0.05 | < 0.05 | < 0.05 | < 0.05
C=C(CN1CCC(N2CCOCC2)CC1)C(=O)Nc1ccc(OC)c(Nc2ncc(Cl)c(Nc3ccccc3P(C)(C)=O)n2)c1 | < 0.05 | < 0.05 | < 0.05 | < 0.05 | < 0.05
COc1cc(F)c(NC(=O)CCl)cc1Nc1ncc(Cl)c(Nc2ccccc2P(C)(C)=O)n1 | < 0.05 | < 0.05 | < 0.05 | < 0.05 | < 0.05
C=CC(=O)Nc1cc(Nc2ncc(Cl)c(Nc3ccccc3P(C)(C)=O)n2)c(OC)cc1OC1CCN(C)C1 (stereo not given) | < 0.05 | < 0.05 | < 0.05 | < 0.05 | < 0.05
COc1cc(N2CCOCC2)c(NC(=O)C#CCCN2CCCCC2)cc1Nc1ncc(Cl)c(Nc2ccccc2P(C)(C)=O)n1 | < 0.05 | < 0.05 | < 0.05 | < 0.05 | < 0.05
C=CC(=O)Nc1ccc(OC(F)(F)F)c(Nc2ncc(Cl)c(Nc3ccccc3P(C)(C)=O)n2)c1 | < 0.05 | < 0.05 | < 0.05 | < 0.05 | < 0.05
COCC1CCCN1CCC#CC(=O)Nc1cc(Nc2ncc(Cl)c(Nc3ccccc3P(C)(C)=O)n2)c(OC)cc1N1CCOCC1 (stereo not given) | < 0.05 | < 0.05 | < 0.05 | < 0.05 | < 0.05
C=CC(=O)Nc1cc(Nc2ncc(Cl)c(Nc3ccccc3P(C)(C)=O)n2)c(OC)cc1OCc1ccncc1 | < 0.05 | 0.101 to 0.25 | < 0.05 | < 0.05 | < 0.05
C=CC(=O)Nc1cc(Nc2ncc(Cl)c(Nc3ccccc3P(C)(C)=O)n2)c(OC)cc1OC(CF)CN(CC)CC (stereo not given) | < 0.05 | < 0.05 | < 0.05 | < 0.05 | < 0.05
C=CC(=O)Nc1cc(Nc2ncc(Cl)c(Nc3ccccc3P(C)(C)=O)n2)c(OC)cc1C#CCN(C)C | < 0.05 | < 0.05 | < 0.05 | < 0.05 | < 0.05
C=CC(=O)Nc1cc(Nc2ncc(Cl)c(Nc3ccccc3P(C)(C)=O)n2)c(OC)cc1N1CCC(N(C)C)C1 (stereo not given) | < 0.05 | < 0.05 | < 0.05 | < 0.05 | < 0.05
COCC#CC(=O)Nc1cc(Nc2ncc(Cl)c(Nc3ccccc3P(C)(C)=O)n2)c(OC)cc1N1CCC(N(C)C)C1 (stereo not given) | < 0.05 | < 0.05 | < 0.05 | < 0.05 | < 0.05
C=CC(=O)Nc1cc(Nc2ncc(Cl)c(Nc3ccccc3P(C)(C)=O)n2)c(OC)cc1OC(COC)CN(C)C (stereo not given) | < 0.05 | < 0.05 | < 0.05 | < 0.05 | < 0.05
Cc1ccc(NC(=O)CCl)cc1Nc1ncc(Cl)c(Nc2ccccc2P(C)(C)=O)n1 | < 0.05 | < 0.05 | < 0.05 | < 0.05 | < 0.05
C=CC(=O)Nc1ccc(OC)c(Nc2ncc(Cl)c(Nc3ccc(OCCN(C)C)cc3P(C)(C)=O)n2)c1 | < 0.05 | < 0.05 | < 0.05 | < 0.05 | < 0.05
C=CC(=O)Nc1cc(Nc2ncc(Cl)c(Nc3ccccc3P(C)(C)=O)n2)c(OC)cc1N1CCC(N(C)CCOC)C1 (stereo not given) | < 0.05 | < 0.05 | < 0.05 | < 0.05 | < 0.05
C=CC(=O)Nc1cc(Nc2ncc(Cl)c(Nc3ccccc3P(C)(C)=O)n2)c(OC)cc1N(C)CCN(C)CCF | < 0.05 | < 0.05 | < 0.05 | < 0.05 | < 0.05
C=CC(=O)Nc1cc(Nc2ncc(Cl)c(Nc3ccccc3P(C)(C)=O)n2)c(OC)cc1N1CCC(N2CCCC2)CC1 | 0.05 to 0.1 | 0.101 to 0.25 | < 0.05 | < 0.05 | < 0.05
C=CC(=O)Nc1cc(Nc2ncc(Cl)c(Nc3ccccc3P(C)(C)=O)n2)c(OC)cc1N1CCC(N2CCCN(C)CC2)CC1 | < 0.05 | 0.101 to 0.25 | 0.05 to 0.1 | < 0.05 | < 0.05
C=CC(=O)Nc1cc(Nc2ncc(Cl)c(Nc3ccccc3P(C)(C)=O)n2)c(OC)cc1C#CCN(C)C1CCCC1 | < 0.05 | < 0.05 | < 0.05 | < 0.05 | < 0.05
